Source: US12559474B2, “Triazine derivatives having virus replication inhibitory activity and pharmaceutical composition comprising the same” (priority 2021, dated 2026)
Like-named read-outs stand apart in the source and are kept apart here.

Assays:
[1] = tested on: SARS-CoV-2; test: microbe, parasite or virus in culture; format: cell-based; settings: Severe acute respiratory syndrome coronavirus 2, VeroE6/TMPRSS2, 72 h, 50% SARS-CoV-2 infected cell death inhibitory concentration, VeroE6/TMPRSS2 cells, 3 days culture
[2] = target: SARS-CoV-2 3CL protease (Severe acute respiratory syndrome coronavirus 2, UniProt P0DTD1); test: biochemical; settings: 50% SARS-CoV-2 3CL protease inhibitory concentration, read-out: IC50

Row | SMILES | EC50 ([1]; CellTiter-Glo 2.0) [nM] | IC50 ([2]; RapidFire MS) [nM] | EC50 ([1]; class symbols) [nM] | IC50 ([2]; given as class symbols) [nM]
1 | CCn1cc2cc(Nc3nc(=O)n(-c4cncc(C)c4)c(=O)n3Cc3cc(C#N)ccc3C)c(Cl)cc2n1 [II-0493] | 68 | 1.3 |  | 
2 | CCn1cc2cc(Nc3nc(=O)n(-c4cncc(C)c4)c(=O)n3Cc3cc(Cl)c(F)cn3)c(Cl)cc2n1 [II-0494] | 878 | 24 |  | 
3 | COc1cncc(-n2c(=O)nc(Nc3cc4cn(C)nc4cc3Cl)n(Cc3cc(F)c(F)c(F)c3)c2=O)c1 [II-0495] |  |  | < 1000 | < 100
4 | CNc1nc2ccc(Nc3nc(=O)n(-c4cncc(C)c4)c(=O)n3Cc3cc(C#N)ccc3C)cc2s1 [II-0496] |  |  | < 1000 | < 100
5 | CNc1nc2ccc(Nc3nc(=O)n(-c4cncc(C)c4)c(=O)n3Cc3cc(C#N)ccc3Cl)cc2s1 [II-0497] |  |  | < 1000 | < 100
6 | Cc1cncc(-n2c(=O)nc(Nc3cc4sc(NCC(F)F)nc4cc3Cl)n(Cc3cc(F)c(F)c(C#N)c3)c2=O)c1 [II-0498] |  |  | 1000 to 10000 | < 100
7 | Cn1cc2cc(Nc3nc(=O)n(-c4cncc5c4COC5)c(=O)n3Cc3cc(Cl)c(F)cc3F)c(Cl)cc2n1 [II-0499] | 680 | 12 |  | 
8 | Cn1cnc(Cn2c(=O)nc(Nc3cc4sc(NCC(F)F)nc4cc3Cl)n(Cc3cc(F)c(F)cc3F)c2=O)n1 [II-0500] |  |  | 1000 to 10000 | < 100
9 | CNc1nc2cc(F)c(Nc3nc(=O)n(-c4cncc(C)c4)c(=O)n3Cc3cc(F)c(F)cc3F)cc2s1 [II-0501] |  |  | < 1000 | < 100
10 | Cn1cc2cc(Nc3nc(=O)n(-c4cncc5c4COC5)c(=O)n3Cc3cc(F)c(F)c(F)c3)c(Cl)cc2n1 [II-0503] |  |  | 1000 to 10000 | < 100
11 | Cc1cncc(-n2c(=O)nc(Nc3cc4cn(C)nc4cc3F)n(Cc3cc(C#N)c(F)cc3C)c2=O)c1 [II-0504] |  |  | < 1000 | < 100
12 | O=c1[nH]cccc1Cn1c(=O)nc(Nc2cc3cn(CC(F)(F)F)nc3cc2Cl)n(Cc2cc(F)c(F)c(F)c2)c1=O [II-0505] |  |  | 1000 to 10000 | < 100
13 | Cc1cncc(-n2c(=O)nc(Nc3cc4cn(CC(F)F)nc4cc3F)n(Cc3cc(F)c(F)c(C#N)c3)c2=O)c1 [II-0506] |  |  | < 1000 | < 100
14 | N#CCn1cc2cc(Nc3nc(=O)n(Cc4ccc[nH]c4=O)c(=O)n3Cc3cc(F)c(F)c(F)c3)c(Cl)cc2n1 [II-0507] |  |  | 1000 to 10000 | < 100
15 | Cn1cnc(Cn2c(=O)nc(Nc3cc4oc(N)nc4cc3Cl)n(Cc3cc(F)c(F)c(Cl)c3)c2=O)n1 [II-0508] |  |  | 1000 to 10000 | < 100
16 | CNC(=O)Cn1cc2cc(Nc3nc(=O)n(-c4cncc5ccccc45)c(=O)n3Cc3cc(F)c(F)c(F)c3)c(Cl)cc2n1 [II-0509] |  |  | 1000 to 10000 | < 100
17 | CNc1nc2cc(Cl)c(Nc3nc(=O)n(-c4cncc(C)c4)c(=O)n3Cc3ccc(F)c(C#N)c3)cc2o1 [II-0512] |  |  | 1000 to 10000 | < 100
18 | N#Cc1cc(Cn2c(Nc3cc4cn(CC(F)F)nc4cc3F)nc(=O)n(-c3cncc(Cl)c3)c2=O)ccc1F [II-0513] |  |  | < 1000 | < 100
19 | Cn1cnc(Cn2c(=O)nc(Nc3cc4c(C(F)F)n(C)nc4cc3Cl)n(Cc3cc(F)c(F)cc3F)c2=O)n1 [II-0514] |  |  | 1000 to 10000 | < 100
20 | Cn1cnc(Cn2c(=O)nc(Nc3cc4cn(C)nc4cc3F)n(Cc3cc(Cl)c(F)cc3F)c2=O)n1 [II-0515] |  |  | 1000 to 10000 | < 100
21 | CNc1nc2cc(Cl)c(Nc3nc(=O)n(-c4cncc(Cl)c4)c(=O)n3Cc3ccc(F)c(C#N)c3)cc2o1 [II-0516] |  |  | 1000 to 10000 | < 100
22 | CNc1nc2cc(Cl)c(Nc3nc(=O)n(Cc4ncn(C)n4)c(=O)n3Cc3cc(F)c(F)cc3F)cc2o1 [II-0517] |  |  | 1000 to 10000 | < 100
23 | Cc1cncc(-n2c(=O)nc(Nc3cc4cn(CC(F)F)nc4cc3F)n(Cc3cc(F)c(F)c(F)c3)c2=O)c1 [II-0518] |  |  | 1000 to 10000 | < 100
24 | Cn1cnc(Cn2c(=O)nc(Nc3cc4cn(C)nc4cc3F)n(Cc3cc(F)c(F)cc3F)c2=O)n1 [II-0519] |  |  | 1000 to 10000 | < 100
25 | COc1cc(F)c(F)cc1Cn1c(Nc2cc3cn(C)nc3cc2Cl)nc(=O)n(-c2cncc(C)c2)c1=O [II-0520] |  |  | 1000 to 10000 | < 100
26 | Cc1cncc(-n2c(=O)nc(Nc3ccc4nn(CC(F)F)cc4c3)n(Cc3cc(C#N)ccc3C)c2=O)c1 [II-0521] | 220 | 3.4 |  | 
27 | Cn1cnc(Cn2c(=O)nc(Nc3cc4c(cc3Cl)nc3n4CCN3)n(Cc3cc(Cl)c(F)cc3F)c2=O)n1 [II-0522] | 15000 | 4.1 |  | 
28 | Cn1cc2cc(Nc3nc(=O)n(-c4cncc(Cl)c4)c(=O)n3Cc3cc(C#N)ccc3Cl)ccc2n1 [II-0523] | 240 | 11 |  | 
29 | Cc1cncc(-n2c(=O)nc(Nc3cc4sc(NCC(F)F)nc4cc3Cl)n(Cc3ccc(F)c(C#N)c3)c2=O)c1 [II-0524] |  |  | 1000 to 10000 | < 100
